The record followed here is patent US11226337B2, “Chemoproteomic profiling of protein electrophilic and oxidative post-translational modifications” (Zenagem, LLC, priority 2017, dated 2022).

Experiment [1] deals with T1, KEAP1 (Homo sapiens, UniProt Q14145).
T1 construct: Full-length genes encoding three probe 1- and one probe 2-targeted proteins were amplified from a cDNA library; expressed in transfected cells; host or cells: HEK293T
Briefly: gel-based RP-ABPP of transfected HEK293T cells. The note with it: transfected HEK293T cells vs mock. In kind it is cell-based. Here is the method:
(§1) Soluble proteomes from treated cells were diluted to 1 mg/mL. To each sample (50 μL), a freshly prepared “click” or CuAAC reagent mixture (6 μL) containing 0.1 mM tris(benzyltriazolylmethyl)amine (TBTA) (3 μL/sample, 1.7 mM in 4:1 DMSO:t-BuOH), 1 mM CuSO4 (1 μL/sample, 50 mM in H2O), 25 μM azide-rhodamine (1 μL/sample, 1.25 mM in DMSO), and freshly prepared 1 mM tris(2-carboxyethyl)phosphine (TCEP) (1 μL/sample, 50 mM in PBS or H2O) was added to conjugate the fluorophore to probe-labelled proteins. TBTA was purchased from TCI and azide-rhodamine was synthesized as previously described^64. Upon addition of the click mixture, each reaction was immediately mixed by vortexing and then allowed to react at ambient temperature for 1 hour before quenching the reactions with SDS loading buffer (4× stock, 17 μL). Proteins (˜25 μg total protein loaded per gel lane) were resolved by SDS-PAGE (10% acrylamide) and visualized by in-gel fluorescence scanning on a Hitachi FMBIO-II or BioRad ChemiDoc MP flatbed fluorescence scanner.
(§2) Full-length genes encoding three probe 1- and one probe 2-targeted proteins were amplified from a cDNA library derived from the same low-passage HEK293T cells used for proteomic profiling. The library was generated using Ribozol RNA extraction (Amresco) and iScript reverse transcription (Bio-rad) supermix reagents. The gene products were cloned into mammalian expression vectors containing N- or C-terminal FLAG affinity tags. The gene for S-adenosyl-L-methionine decarboxylase (AMD1 or AdoMetDC) was cloned into pFLAG-CMV-sport6 (N-terminal tag) at NotI and SalI restriction sites. AMD1, Secernin-3 (SCRN3) and fat mass- and obesity-associated Fe(II)- and 20G-dependent dioxygenase (FTO) were cloned into pRK5 (C-terminal tag) at SalI and NotI restriction sites. Kelch-like ECH-associated protein-1 (Keapl) (N-terminal tag), and empty plasmids of pRK5 were gifts. Full sequences of the genes were confirmed. The proteins expressed via transient transfection in HEK293T cells contain an additional 15 amino acids appended to their N-terminal methionine residue or C-terminus (MDYKD4KLKACGR (SEQ ID NO: 43) and A3G4DYKD4K (SEQ ID NO: 44), respectively). The DYKD4K (SEQ ID NO: 42) appendage in each contains the classic FLAG epitope that permits detection by western blotting or purification by affinity chromatography. Mutants of SCRN3 were generated using QuikChange site-directed mutagenesis with primers containing the desired mutations and their respective compliments. The gene for the deletion mutant of SCRN3 with the sequence MetlCys6-SCRN3 instead of Met1 Glu2Pro3Phe4Ser5Cys6-SCRN3 (SEQ ID NO: 45) was amplified from the wild-type C-terminal FLAG-tagged construct and cloned into the same vector.
(§3) HEK293T cells were grown to ˜40% confluence under standard growth conditions passaged in the appropriate media before adding the appropriate expression vector (control cells (‘mock’) received an equal amount of the appropriate empty vector) and polyethyleneimine (PEI) ‘MAX’ (MW 40,000, Polysciences Inc.) as a transfection reagent under standard transfection conditions (3:1 vector/PEI (w/w) ratio). Cells were incubated for ˜48 h before labelling in situ. Proteomes were processed for gel- and MS-based experiments as described above and in Example 2.
(§4) After scanning fluorescence, that same gel was transferred to nitrocellulose membrane in Towbin buffer, the membrane was blocked for ˜1 hour at ambient temperature with 5% nonfat dry milk (w/v) in Tris-buffered saline with Tween 20 (TBST) and incubated with primary antibodies in the same solution overnight at 4° C. The antibodies included anti-FLAG (1:2500, F1804, Sigma), anti-AdoMetDC (1:500, sc-160951, Santa Cruz Biotechnology) and anti-His6 (1:1000, ab18184, Abcam). The blots were washed (3×5 min, TBST), incubated with secondary antibodies (1:10,000, IRDye 800CW, LICOR) in milk for 1 hour at ambient temperature, washed again (3×5 min, TBST), and visualized on a LICOR Odyssey Scanner.

The target of experiment [2] is T2, FTO (Homo sapiens, UniProt Q9C0B1).
T2 construct: Full-length genes encoding three probe 1- and one probe 2-targeted proteins were amplified from a cDNA library; expressed in transfected cells; host or cells: HEK293T
Briefly: gel-based RP-ABPP of transfected HEK293T cells. In kind it is cell-based. The note with it: transfected HEK293T cells vs mock. Here is the method:
as §1, §2, §3, §4

The target of experiment [3] is T3, SCRN3 (Homo sapiens, UniProt Q0VDG4).
T3 construct: Full-length genes encoding three probe 1- and one probe 2-targeted proteins were amplified from a cDNA library; expressed in transfected cells; host or cells: HEK293T
T3 sequence (Q0VDG4 6-424): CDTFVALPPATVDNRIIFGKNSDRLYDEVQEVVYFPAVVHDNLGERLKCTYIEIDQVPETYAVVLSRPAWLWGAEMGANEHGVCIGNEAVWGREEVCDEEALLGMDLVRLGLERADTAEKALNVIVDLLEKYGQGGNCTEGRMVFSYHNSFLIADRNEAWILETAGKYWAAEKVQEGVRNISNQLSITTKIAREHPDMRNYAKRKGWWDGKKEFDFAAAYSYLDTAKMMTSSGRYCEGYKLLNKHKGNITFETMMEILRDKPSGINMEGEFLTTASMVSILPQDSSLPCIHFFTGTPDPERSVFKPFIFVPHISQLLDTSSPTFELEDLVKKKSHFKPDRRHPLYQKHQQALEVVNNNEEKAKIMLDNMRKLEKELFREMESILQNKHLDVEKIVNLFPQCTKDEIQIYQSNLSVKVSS
The experiment is described as follows: gel-based RP-ABPP of transfected HEK293T cells. In kind it is cell-based. The note with it: transfected HEK293T cells vs mock. Here is the method:
as §1, §2, §3, §4

Experiment [4] concerns HEK293T and MDA-MB-231 cells. Briefly: determination of high-reactivity protein targets (SILAC RP-ABPP). In kind it is cell-based, human. The note with it: enrichment ratio >5 and competition ratio >4. How it is done: To further eliminate false positives and any stochastic variability in the data, protein ratios were then determined by the median peptide ratio derived from three or more unique quantified peptides. Protein ratios that complied with these criteria from a single experiment were then averaged with ratios acquired from ≥3 replicates to provide final values for each type of experiment in both cell lines with both probes. […] Most importantly, there are no robustly measured ratios for proteins identified as probe 1 targets that had measured ratios of ˜1 with probe 2. […]
Two types of experiments were performed—1) direct enrichment of probe 1-labelled proteins from heavy cells in comparison to light control cells treated with the non-clickable hydrazine (3) at the same concentration as 1 (3 mM for 0.5 h); and 2) competition experiments where both heavy and light cells were treated probe 1, but light cells were also treated with 10× competitor 3 (FIG. 3A)—in two different human cell lines (HEK293T cells and the human breast cancer cell line MDA-MB-231). […] The target list was further refined by requiring that each protein was detected with a minimum of three unique quantified peptides per experiment and by averaging protein ratios across three or more biological replicates per cell line.

T1 sequence (Q14145 whole entry): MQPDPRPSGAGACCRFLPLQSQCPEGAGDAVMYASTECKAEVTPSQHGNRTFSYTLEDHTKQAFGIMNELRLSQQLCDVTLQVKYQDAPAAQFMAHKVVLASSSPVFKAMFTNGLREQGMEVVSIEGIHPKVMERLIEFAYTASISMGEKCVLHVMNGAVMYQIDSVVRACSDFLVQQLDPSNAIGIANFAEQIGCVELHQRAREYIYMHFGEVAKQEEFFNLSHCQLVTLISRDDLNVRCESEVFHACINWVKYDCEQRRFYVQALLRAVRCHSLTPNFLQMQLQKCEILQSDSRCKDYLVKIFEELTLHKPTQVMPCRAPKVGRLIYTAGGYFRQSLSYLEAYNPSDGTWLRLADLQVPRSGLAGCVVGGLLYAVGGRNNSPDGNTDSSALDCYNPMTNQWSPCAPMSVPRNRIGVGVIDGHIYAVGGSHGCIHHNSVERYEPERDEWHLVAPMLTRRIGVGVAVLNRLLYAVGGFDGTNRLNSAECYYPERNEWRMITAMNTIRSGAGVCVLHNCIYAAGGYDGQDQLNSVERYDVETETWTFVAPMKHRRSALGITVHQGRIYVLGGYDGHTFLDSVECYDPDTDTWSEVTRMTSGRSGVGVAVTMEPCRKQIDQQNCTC
T2 sequence (Q9C0B1 whole entry): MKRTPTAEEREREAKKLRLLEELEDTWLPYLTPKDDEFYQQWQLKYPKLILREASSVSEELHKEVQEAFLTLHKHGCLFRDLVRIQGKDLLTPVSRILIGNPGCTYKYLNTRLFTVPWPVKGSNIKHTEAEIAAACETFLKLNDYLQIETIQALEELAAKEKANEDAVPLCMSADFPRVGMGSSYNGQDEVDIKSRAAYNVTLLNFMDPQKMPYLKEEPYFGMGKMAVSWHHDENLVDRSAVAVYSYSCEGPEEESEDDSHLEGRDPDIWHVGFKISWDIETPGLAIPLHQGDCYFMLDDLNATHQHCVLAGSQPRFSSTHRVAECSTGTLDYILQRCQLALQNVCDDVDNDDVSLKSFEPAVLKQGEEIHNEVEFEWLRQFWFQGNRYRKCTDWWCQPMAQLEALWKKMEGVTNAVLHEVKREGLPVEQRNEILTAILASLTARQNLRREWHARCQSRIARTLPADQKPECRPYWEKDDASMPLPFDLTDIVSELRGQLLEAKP

With `C#CCCNC(=O)c1ccc(NN)cc1.Cl` [probe 2, N-(but-3-yn-1-yl)-4-hydrazinylbenzamide hydrochloride], the “probe labeling of recombinant protein, in-gel fluorescence” value in experiment [1] is “reacted with both probes 1 and 2”; in experiment [2], “preferentially targeted by probe 2”; in experiment [3] it was “reacted with both probes 1 and 2”. Also, the “number of high-reactivity proteins” value in experiment [4] is 33.

Turning to `C#CCNN.Cl` [probe 1, prop-2-yn-1-ylhydrazine hydrochloride], the “probe labeling of recombinant protein, in-gel fluorescence” value in experiment [1] is “reacted with both probes 1 and 2”; in experiment [2], “selective reactivity with the aryl probe 2 over the alkyl probe 1”; in experiment [3] it was “reacted with both probes 1 and 2”. Besides, in experiment [4], the “number of high-reactivity proteins” value is “ten”.
